The results in this text go back to patent US5773411A, “Cyclic compounds linked by a heterocyclic ring useful as inhibitors of platelet glycoprotein IIB/IIIA” (The DuPont Merck Pharmaceutical Company, priority 1994, dated 1998).

Some results are limits rather than exact numbers.

The experiment has as its system agonist-induced platelet aggregation in platelet-rich plasma (PRP). The experiment can be described thus: Platelet Aggregation Assay. The class given is cell-based. The following applies: human PRP; agonists ADP, collagen, arachidonate, epinephrine, thrombin; compound added prior to activation of the platelets. As to the method: Platelet Aggregation Assay
Venous blood was obtained from the arm of a healthy human donor who was drug-free and aspirin-free for at least two weeks prior to blood collection. Blood was collected into 10 ml citrated Vacutainer tubes. The blood was centrifuged for 15 minutes at 150×g at room temperature, and platelet-rich plasma (PRP) was removed. The remaining blood was centrifuged for 15 minutes at 1500×g at room temperature, and platelet-poor plasma (PPP) was removed. Samples were assayed on a aggregometer (PAP-4 Platelet Aggregation Profiler), using PPP as the blank (100% transmittance). 200 μl of PRP was added to each micro test tube, and transmittance was set to 0%. 20 μl of various agonists (ADP, collagen, arachidonate, epinephrine, thrombin) were added to each tube, and the aggregation profiles were plotted (% transmittance versus time). The results were expressed as % inhibition of agonist-induced platelet aggregation. For the IC50 evaluation, the test compounds were added at various concentrations prior to the activation of the platelets.
The IC50 is the concentration that inhibits the measured activity by half. `CC(C)[C@H]1NC(=O)c2cccc(n2)CNC(=O)[C@H](CC(=O)O)NC(=O)CNC(=O)[C@H](CCCNC(=N)N)N(C)C1=O` [Example 3, cyclo(6-(D-Val-NMeArg-Gly-Asp)aminomethyl-2-pyridinecarboxylate)] came in with an IC50 of 1000 to 10000 nM.
In turn, `CC(C)[C@H]1NC(=O)C2=CC=C(CNC(=O)[C@H](CC(=O)O)NC(=O)CNC(=O)[C@H](CCCNC(=N)N)N(C)C1=O)O2` [Example 1, cyclo-(D-Val-N(Me)Arg-Gly-Asp-[5-aminomethyl]-2-furoate)] had an IC50 of less than 1000 nM.
“cyclo-(D-Val-N(Me)Arg-Gly-Asp-[2-amino]-4-thiazoleacetate) [Example 4]” gave a half-maximal inhibitory concentration (IC50) of less than 1000 nM.
